Results from patent US6407073B1, “Use of coumarin derivatives for the treatment of digestive tract disorders” (Bio-Monde Preparations Limited, priority 1997, dated 2002).
Marks after values point to notes of the source that are not given here.

Experiments:
[1] = tested on: mice with AAP-induced hepatotoxicity; experiment: Survival of mice with acetaminophen (AAP)-induced hepatotoxicity; type: in vivo, CBA/H Zgr inbred mice; settings: for No of dead mice/Total No of mice / Mortality (%): 48 hours; for mortality in comparison with control mice given saline: 250 mg/kg
From the text: The hepatoprotective effect of a composition in accordance with the invention was investigated in mice with acetaminophen (paracetamol) induced hepatotoxicity.
CBA/H Zgr inbred mice were raised in an animal colony unit. Mice of both sexes aged 3 to 4 month were used in the experiments. Mice were maintained under standard laboratory conditions, fed with commercially available murine food pellets and allowed water ad libitum.
The procedure of Guarner was followed (see Hepatology 1988; 3:248-53). To induce hepatic drug-metabolising enzymes, mice were given phenobarbitone-sodium in drinking water for 7 days (0.3 g/L). Thereafter, mice were fasted overnight. […]
The above ingredients were dissolved in phosphate buffered saline (PBS) to which several drops of Tween 20™ (polyoxyethylene 20 sorbitan monolaurate) were added (50 μl/ml). The resulting white milk suspension was administered to mice intraperitoneally.
At the same time, control animals were given 0.5 ml of pyrogen-free saline to which several drops of Tween 20™ (50 μl/ml) were added.
Acetaminophen, dissolved in heated PBS, was given intragastrically, by stomach tube, in a volume of 0.5 ml. Animals were allowed food 4 hours later. Mortality of mice was followed for 48 hours, as previous results have shown that control mice (given saline rather than the composition before acetaminophen) either die within this period or fully recover and survive indefinitely.
Differences in survival between groups of mice were compared by χ^2-test. Plasma AST and ALT concentrations are expressed as means±SEM and differences between groups were compared by Student's t-test.

[2] = tested on: mice with AAP-induced hepatotoxicity; experiment: Plasma aminotransferase levels in mice with AAP-induced hepatotoxicity; type: in vivo, CBA/H Zgr inbred mice
Method: Plasma aspartate aminotransferase (AST) and alanine aminotransferase (ALT) were measured 24 hours after the administration of acetaminophen, because it has been observed that the levels of AST and ALT are at their peak values at this time. Mice were given 250 units of […] intraoeritoneally 15 minutes before bleeding. Blood was obtained by puncture of medial orbital angle using glass capillary tubes. Plasma was stored at −20° C. until aminotransferase determination, which was carried out using standard laboratory techniques (see Expert Panel on Enzymes, Committee on Standards, Clin. Chem. Biochem. 1977; 15: 39-51 and Clin. Chem. Acta. 1980; 105: 147F-54F). Differences in survival between groups of mice were compared by χ^2-test. Plasma AST and ALT concentrations are expressed as means±SEM and differences between groups were compared by Student's t-test. The effect of a Compound of the invention (Hymecromone) was investigated on plasma aminotransferase levels in mice with AAP-induced hepatotoxicity. Hymecromone (250 mg/kg) or a control of saline was given to mice 30 minutes before administration of acetaminophen (220 mg/kg). Plasma AST and ALT were measured 24 hours after acetaminophen administration. […] As shown, in comparison with normal mice, the administration of acetaminophen increased AST and ALT by approximately 19 and 100 times, respectively.

[3] = Table 1, Hymecromone 50 mg/kg i.p. 30 minutes before AAP 300 mg/kg
[4] = Table 1, Hymecromone 250 mg/kg i.p. 30 minutes before AAP 300 mg/kg, P < 0.01 vs saline
[5] = Table 2, Hymecromone 50 mg/kg i.p. 30 minutes before AAP 250 mg/kg
[6] = Table 2, Hymecromone 250 mg/kg i.p. 30 minutes before AAP 250 mg/kg, P < 0.001 vs saline
[7] = Table 3, Hymecromone 250 mg/kg i.p. 30 minutes before AAP 250 mg/kg, P < 0.001 vs saline
[8] = Hymecromone 250 mg/kg, AAP 220 mg/kg, P<0.005
[9] = plasma, Hymecromone 250 mg/kg 30 minutes before AAP 220 mg/kg, 24 hours after AAP, mean, n = 16, P < 0.005 vs saline

For Cc1cc(=O)oc2cc(O)ccc12 [Hymecromone, 7-hydroxy-4-methylcoumarin], the “No of dead mice/Total No of mice” value ([1]; Table 1, Hymecromone 10 mg/kg i.p. 30 minutes before AAP 300 mg/kg intragastrically) was 12/12, the “Mortality (%)” value ([1]; Table 1, Hymecromone 10 mg/kg i.p. 30 minutes before AAP 300 mg/kg) was 100% and the “Mortality (%)” value [1, 3] was 92%. For the same compound, the “No of dead mice/Total No of mice” value [1, 3] was 11/12, the “Mortality (%)” value [1, 4] was 29% and the “No of dead mice/Total No of mice” value [1, 4] was 2/7. For the same compound, the “mortality in comparison with control mice given saline” value ([1]; Table 1 experiment, P<0.01) was “significantly reduced the mortality”, the “Mortality (%)” value [1, 5] was “(93) %” and the “No of dead mice/Total No of mice” value [1, 5] was 9/13. For the same compound, the “Mortality (%)” value [1, 6] was “(0)^c %”, the “No of dead mice/Total No of mice” value [1, 6] was 0/13 and the “Mortality (%)” value [1, 7] was “(0)^c %”. For the same compound, the “No of dead mice/Total No of mice” value [1, 7] was 0/15, the “mortality in comparison with control mice given saline” value ([1]; two further experiments (Tables 2 and 3), P<0.001) was “statistically significantly reduced the mortality” and the “reduction of the increase of ALT in comparison with control mice pretreated with saline” value [2, 8] was “three times”. For the same compound, the “reduction of the increase of AST in comparison with control mice pretreated with saline” value [2, 8] was “five times”, the ALT [2, 9] was 776 U/L and the AST [2, 9] was 267 U/L.
